Experimental data from patent US20260209260A1, “VECTORIZED NHC IRIDIUM(III) COMPLEXES AND USE THEREOF IN PHOTODYNAMIC THERAPY AND/OR DIAGNOSTIC” (CENTRE NATIONAL DE LA RECHERCHE SCIENTIFIQUE, priority 2022, published 2026).
Where two headings read alike, the source gives them in different places.

Legend:
Format in all cases: cell-based, Human
A549 lung cancer cells = assay: Cell viability assay (MTT), dark and blue light
Description: (§1) Cells were grown in humidified incubators at 37° C. in 5% CO2. Murine MC3T3 osteoblast and NIH-3T3 fibroblast cells-used as non-tumor cell models-were cultured in a-MEM medium and DMEM medium supplemented with 10% fetal bovine serum (FBS) and 1% Penicillin/Streptomycin (P/S) antibiotics, respectively. Human T24 bladder, MGHU3 bladder, Scaber bladder, A549 lung, MCF7 breast, MiaPaCa2 pancreas cancer cells were cultured in DMEM medium supplemented with 10% FBS and 1% P/S antibiotics. […] Human Hela cervix and HepG2 liver cancer cells were cultured EMEM medium supplemented with 10% FBS and 1% P/S antibiotics.
(§2) MTT reagent (3-(4,5-dimethylthiazol-2-yl)-2,5-diphenyltetrazolium bromide) was used to determine cell death as originally described by Mosmann. Briefly, cells were seeded from 5,000 to 10,000 cells/well in 24-well plates (1 mL) depending on the cell type and allowed to attach overnight. The complexes were prepared in DMSO. The concentration of the complexes was calculated based on the elemental composition of the complexes determined by the elemental analyses. All cell viability experiments were carried out with a fixed concentration of 0.1% (v/v) DMSO. After 72 h of treatment, cells were incubated at 37° C. and 5% CO2 with 25 μL of MTT solution (5 mg/ml; Sigma-Aldrich) in 24-well plates for 3 to 4 h. After solubilization with 500 μL of DMSO, formazan was quantified spectrophotometrically with a microplate reader at 570 nm absorbance (ClarioSTAR, BMG LabTech). […] All the results were calculated from data obtained in at least three independent experiments performed in triplicate.
(§3) Two sets of experiments were conducted in parallel for each complex to be studied:
(§4) 1. The cells were incubated with the different complexes (in the dark) for 72 h.
(§5) 2. The cells were incubated for 8 h with the different complexes (in the dark), then irradiated for 10 min, followed by an incubation in the dark up to 72 h.

T24 bladder cancer cells = assay: Cell viability assay (MTT), dark and blue light
Description: as §1, §2, §3, §4, §5

MCF7 breast cancer cells = assay: Cell viability assay (MTT), dark and blue light
Procedure, shortened: (§6)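 Two parallel arms: continuous 72 h dark exposure, or 8 h preincubation followed by 10 min blue light at 458 nm (9.6 W LEDs) and further dark incubation to 72 h. Final DMSO 0.1% (v/v); MTT formazan read at 570 nm, triplicate runs repeated at least three times.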

[1] = system: MGHU3 bladder cancer cells; assay: Cell viability assay (MTT), dark and blue light
Procedure, shortened: as §6

[2] = system: Scaber bladder cancer cells; assay: Cell viability assay (MTT), dark and blue light
Procedure, shortened: as §6

[3] = system: cancer cells (all tumor cell lines tested); assay: Cell viability assay (MTT), summary over the cancer cell lines tested
Description: as §1, §2, §3, §4, §5

[4] = system: 22rV1 prostate cancer cells (PSMA-positive); assay: Cell viability assay (MTT), dark and blue light; settings: for Photosensitizing index (PI): 22Rv1, dark vs blue light
Procedure, shortened: (§7)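 Cells in RPMI with 10% FBS were treated with complexes (0.1% v/v DMSO) for 72 h in the dark, or for 8 h then irradiated 10 min with 458 nm blue LEDs (9.6 W) and kept dark to 72 h. Viability read by MTT formazan absorbance at 570 nm.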

[5] = system: C4-2B prostate cancer cells (PSMA-positive); assay: Cell viability assay (MTT), dark and blue light; settings: for Photosensitizing index (PI): dark vs blue light
Procedure, shortened: as §7

[6] = system: PC-3 prostate cancer cells (PSMA-negative); assay: Cell viability assay (MTT), dark and blue light; settings: for Photosensitizing index (PI): PC3, dark vs blue light; for SI (vs MC3T3) PC-3 Blue: blue light 458 nm
Procedure, shortened: as §7

[7] = 22Rv1, blue light, read-out: GI50
[8] = 8 h in the dark, blue light 458 nm 10 min, then dark up to 72 h, read-out: GI50 22Rv1 Blue
[9] = in the dark, 72 h, read-out: GI50 22Rv1 Dark
[10] = 8 h in the dark, blue light 458 nm 10 min, then dark up to 72 h, read-out: GI50 C4-2b Blue
[11] = C4-2b, blue light, read-out: GI50
[12] = in the dark, 72 h, read-out: GI50 C4-2b Dark
[13] = PC3, blue light, read-out: GI50
[14] = in the dark, 72 h, read-out: GI50 PC-3 Dark

Compound: F[P-](F)(F)(F)(F)F.O=C(CCCC[C@@H]1SC[C@@H]2NC(=O)N[C@@H]21)NCCCn1cc[n+]2[c]1[Ir-3]13([c]4ccccc4-c4sc5ccccc5[n+]41)([c]1ccccc1-c1sc4ccccc4[n+]13)[n+]1ccccc1-2 [I-k]
- GI50 (A549 lung cancer cells; 8 h in the dark, blue light 458 nm 10 min, then dark up to 72 h, read-out: GI50 A549 Blue): 1.2 µM
- SI (vs MC3T3) A549 Dark (A549 lung cancer cells; dark): 2.1
- Photosensitizing index (PI) A549 (A549 lung cancer cells; dark vs blue light 458 nm): 10.2
- GI50 (A549 lung cancer cells; in the dark, 72 h, read-out: GI50 A549 Dark): 12.2 µM
- GI50 (T24 bladder cancer cells; 8 h in the dark, blue light 458 nm 10 min, then dark up to 72 h, read-out: GI50 T24 Blue): 0.97 µM
- SI (vs MC3T3) T24 Dark (T24 bladder cancer cells; dark): 1.4
- SI (vs NIH-3T3) T24 Dark (T24 bladder cancer cells; dark): 4.1
- Photosensitizing index (PI) T24 (T24 bladder cancer cells; dark vs blue light 458 nm): 19.3
- GI50 (T24 bladder cancer cells; in the dark, 72 h, read-out: GI50 T24 Dark): 18.7 µM
- GI50 (MCF7 breast cancer cells; 8 h in the dark, blue light 458 nm 10 min, then dark up to 72 h, read-out: GI50 MCF7 Blue): 1.5 µM
- SI (vs NIH-3T3) MCF7 Blue (MCF7 breast cancer cells; blue light 458 nm): 20.7
- SI (vs MC3T3) MCF7 Dark (MCF7 breast cancer cells; dark): 1.7
- Photosensitizing index (PI) MCF7 (MCF7 breast cancer cells; dark vs blue light 458 nm): 9.9
- GI50 (MCF7 breast cancer cells; in the dark, 72 h, read-out: GI50 MCF7 Dark): 14.9 µM
- GI50 ([1]; 8 h in the dark, blue light 458 nm 10 min, then dark up to 72 h, read-out: GI50 MGHU3 Blue): 2.9 µM
- SI (vs MC3T3) MGHU3 Blue ([1]; blue light 458 nm): 6.8
- SI (vs NIH-3T3) MGHU3 Blue ([1]; blue light 458 nm): 10.7
- Photosensitizing index (PI) MGHU3 ([1]; dark vs blue light 458 nm): 15.9
- GI50 ([1]; in the dark, 72 h, read-out: GI50 MGHU3 Dark): 46.1 µM
- GI50 ([2]; 8 h in the dark, blue light 458 nm 10 min, then dark up to 72 h, read-out: GI50 Scaber Blue): 1.8 µM
- SI (vs MC3T3) Scaber Blue ([2]; blue light 458 nm): 10.7
- SI (vs NIH-3T3) Scaber Blue ([2]; blue light 458 nm): 17.3
- SI (vs MC3T3) Scaber Dark ([2]; dark): 1.0
- SI (vs NIH-3T3) Scaber Dark ([2]; dark): 2.9
- Photosensitizing index (PI) Scaber ([2]; dark vs blue light 458 nm): 14.4
- GI50 ([2]; in the dark, 72 h, read-out: GI50 Scaber Dark): 25.9 µM
- selectivity for cancer cells over non-tumor cells, in words [3]: most selective effects under irradiated conditions
- PI values, mean over cancer cells ([3]; dark vs blue light 458 nm): 12.9 fold
- PI values, median over cancer cells ([3]; dark vs blue light 458 nm): 12.2 fold
- GI50 values, range over tumor cell lines, dark ([3]; in the dark): little toxicity against tumor cells under dark conditions

Compound: F[P-](F)(F)(F)(F)F.O=C(O)CC[C@H](NC(=O)N[C@@H](CCCCNC(=O)CCn1cc[n+]2[c]1[Ir-3]13([c]4cccc5ccc6ccc[n+]1c6c45)([c]1cccc4ccc5ccc[n+]3c5c14)[n+]1ccccc1-2)C(=O)O)C(=O)O [III-i]
- GI50 [4, 7]: 1.96 µM
- Photosensitizing index (PI) [4]: 6.4
- GI50 ([4]; 22Rv1, dark, read-out: GI50): 12.5 µM
- GI50 [4, 8]: 2 µM
- SI (vs MC3T3) 22Rv1 Blue ([4]; blue light 458 nm): 20.7
- SI (vs MC3T3) 22Rv1 Dark ([4]; dark): 20.0
- SI (vs NIH-3T3) 22Rv1 Dark ([4]; dark): >8
- GI50 [4, 9]: 12.5 µM
- GI50 [5, 10]: 2.7 µM
- GI50 [5, 11]: 2.69 µM
- Photosensitizing index (PI) ([5]; C4-2b): 5.5
- GI50 ([5]; C4-2b, dark, read-out: GI50): 14.8 µM
- SI (vs NIH-3T3) C4-2b Blue ([5]; blue light 458 nm): 20.7
- SI (vs NIH-3T3) C4-2b Dark ([5]; dark): >6.7
- GI50 [5, 12]: 14.8 µM
- GI50 ([6]; 8 h in the dark, blue light 458 nm 10 min, then dark up to 72 h, read-out: GI50 PC-3 Blue): 8.7 µM
- GI50 [6, 13]: 8.72 µM
- Photosensitizing index (PI) [6]: 6.6
- GI50 ([6]; PC3, dark, read-out: GI50): 57.2 µM
- SI (vs MC3T3) PC-3 Blue [6]: 4.7
- SI (vs MC3T3) PC-3 Dark [6]: 4.4
- SI (vs NIH-3T3) PC-3 Dark [6]: >1.7
- GI50 [6, 14]: 57.2 µM

Compound: F[P-](F)(F)(F)(F)F.O=C(O)CC[C@H](NC(=O)N[C@@H](CCCCNC(=O)CCn1cc[n+]2[c]1[Ir-3]13([c]4c(sc5ccccc45)-c4cccc[n+]41)([c]1c(sc4ccccc14)-c1cccc[n+]13)[n+]1ccccc1-2)C(=O)O)C(=O)O [III-j]
- GI50 [4, 7]: 0.28 µM
- Photosensitizing index (PI) [4]: 35.4
- GI50 ([4]; 22Rv1, dark, read-out: GI50): 9.9 µM
- GI50 [4, 8]: 0.28 µM
- SI (vs MC3T3) 22Rv1 Blue ([4]; blue light 458 nm): 44.0
- SI (vs NIH-3T3) 22Rv1 Blue ([4]; blue light 458 nm): 38.0
- SI (vs NIH-3T3) 22Rv1 Dark ([4]; dark): >10.1
- GI50 [4, 9]: 9.9 µM
- GI50 [5, 10]: 0.52 µM
- GI50 [5, 11]: 0.52 µM
- Photosensitizing index (PI) ([5]; C4-2b): 21.7
- GI50 ([5]; C4-2b, dark, read-out: GI50): 11.3 µM
- SI (vs MC3T3) C4-2b Blue ([5]; blue light 458 nm): 24.0
- SI (vs NIH-3T3) C4-2b Blue ([5]; blue light 458 nm): 20.7
- SI (vs MC3T3) C4-2b Dark ([5]; dark): >22.1
- SI (vs NIH-3T3) C4-2b Dark ([5]; dark): >8.8
- GI50 [5, 12]: 11.3 µM
- GI50 [6, 13]: 1.94 µM
- Photosensitizing index (PI) [6]: 30.0
- GI50 ([6]; PC3, dark, read-out: GI50): 58.2 µM
- SI (vs MC3T3) PC-3 Blue [6]: 6.6
- SI (vs MC3T3) PC-3 Dark [6]: >4.3
- SI (vs NIH-3T3) PC-3 Dark [6]: >1.7
- GI50 [6, 14]: 58.2 µM
